Experimental findings from patent US12708627B2, “Combination therapy for VAV3 cancer” (Children's Hospital Medical Center, priority 2021, dated 2026) are described below.

The test deals with VAV3−/− murine BM leukemic cells expressing p190-BCR-ABL1. In words: Colony formation and cell cycle of VAV3-deficient leukemic cells. In kind it is cell-based. The note with it: for number of colonies, mean±SD: vehicle 20±3.1. The method, then: Quantification against total VAV3 is shown. […] Experiments were performed in triplicates.
(FIG. 5A) Schematic of domain architecture of full-length, ΔCH and GEF-mutant VAV3; calponin-homology (CH), acidic region (Ac), Dbl-homology (DH), pleckstrin-homology (PH), zinc finger (ZF), SRC-homology 2 and 3 (SH2/SH3). Black circle and star indicate Y173 and N369, respectively.
Re-introducing full-length or ΔCH VAV3 results in similar number of colonies as with wild-type BM leukemic cells (black bars, mean of 200.3 and 183.3 vs 188.3, respectively), a 3-fold increase from VAV3^−/− leukemic cells expressing the empty vector (mean=64.3 colonies).
CFU-proB Assay: B-cell lineage colony-forming units (CFU-proB) were quantified post 9-day culture of leukemic BM cells or sorted for p190-BCR-ABL1-expressing B-cell progenitors in M3134 methylcellulose (StemCell Technologies) supplemented with 30% FBS (for mouse B lymphoid colony forming cells; StemCell Technologies), 2 mM L-glutamine and 1% penicillin-streptomycin (Invitrogen), 100 μM β-mercaptoethanol (Fisher-Scientific), 1% BSA (Sigma-Aldrich), 20 ng/mL of recombinant mIL-7 and 100 ng/ml of recombinant mSCF (PeproTech).
Cell Cycle Analysis: Cell cycle was analyzed via in vitro BrdU incorporation (BD Pharmingen, Cat #552598). Briefly, leukemic progenitors were incubated with 1 mM BrdU solution for 45 minutes, cells were further fixed and permeabilized. DNAse treatment was done according to the instructions and stained with anti BrdU and apoptosis was analyzed by 7-AAD staining through flow cytometry analysis.

For `OC1(c2ccccc2)NC(=Nc2nc3ccccc3[nH]2)N=C1c1ccccn1` (stereo not shown) [IODVA1], the “number of colonies, mean±SD” value runs as follows: (1 μM) 20±2.5; (3 μM) 15±7.5. Also, the cell cycle analysis entry (3 μM, 20 h) is listed as “not affected”. The number of colonies (VAV3−/− cells expressing empty vector, 10 μM) is 66 colonies.
